Laboratory results published in patent publication US6800467B1, “Polypeptides having aminopeptidase activity and nucleic acids encoding same” (Novozymes Biotech, Inc., priority 1997, dated 2004).

Target: T1, aminopeptidase II (Aspergillus oryzae, UniProt Q2ULM2)
T1 construct: the first 15 amino acids likely comprise a secretory signal peptide; made in house; host or cells: Aspergillus oryzae JaL142-6 (alkaline protease-deficient), plasmid pEJG19; purified from shake flask supernatant on Q-Sepharose
Test: Inhibition of the aminopeptidase II with 1,10-phenanthroline, Leu-pNA as substrate
Type: biochemical
Details: pH 7.5
Protocol: Inhibition of the aminopeptidase II with 1,10-phenanthroline was evaluated using Leu-pNA as substrate at pH 7.5 in 50 mM Tris pH 7.5 buffer where hydrolysis was monitored at 405 nm. A 200 mM solution of 1,10-phenanthroline in methanol was prepared. The inhibition reaction was conducted by mixing 100 μl of 2 mg of Leu-pNA per ml of 50 mM sodium phosphate pH 7.5 solution and 10 μl of the 1,10-phenanthroline solution with 100 μl of aminopeptidase II diluted 5-fold in 50 mM sodium phosphate pH 7.5 buffer. A control was run where 10 μl of 20 mM Tris pH 7.6 buffer was used in place of the 1,10-phenantholine solution.

T1 sequence (Q2ULM2 17-496): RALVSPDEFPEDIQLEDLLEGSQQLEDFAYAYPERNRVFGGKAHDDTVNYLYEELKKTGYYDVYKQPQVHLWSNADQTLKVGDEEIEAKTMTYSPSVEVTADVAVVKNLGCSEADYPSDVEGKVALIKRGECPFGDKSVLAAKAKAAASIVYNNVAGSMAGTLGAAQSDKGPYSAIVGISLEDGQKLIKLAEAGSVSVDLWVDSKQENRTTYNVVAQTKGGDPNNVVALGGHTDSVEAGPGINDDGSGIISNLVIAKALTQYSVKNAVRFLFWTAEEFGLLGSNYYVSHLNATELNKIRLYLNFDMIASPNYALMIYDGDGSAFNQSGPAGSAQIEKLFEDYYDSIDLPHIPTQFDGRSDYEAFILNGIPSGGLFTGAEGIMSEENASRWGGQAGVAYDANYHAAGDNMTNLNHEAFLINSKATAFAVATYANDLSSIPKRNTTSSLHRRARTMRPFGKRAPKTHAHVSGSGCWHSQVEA

SMILES: c1cnc2c(c1)ccc1cccnc12 [1,10-phenanthroline]
- Inhibition of the aminopeptidase II (Leu-pNA as substrate, 10 μl of 200 mM 1,10-phenanthroline in methanol): inhibited
- rate of hydrolysis of Leu-pNA in the presence of 1,10-phenanthroline (control without inhibitor 285 mOD/minute): 21 mOD/minute
